{"source": "paper PMC5768801", "about": "“The PII signaling protein from red algae represents an evolutionary link between cyanobacterial and Chloroplastida PII proteins” (Scientific Reports, 2018)", "key": {"[1]": {"biological_target": "T1, SyPII (Synechococcus elongatus, UniProt P0A3F4)", "T1 construct": "Strep-tag; made in house", "T1 sequence (P0A3F4 whole entry)": "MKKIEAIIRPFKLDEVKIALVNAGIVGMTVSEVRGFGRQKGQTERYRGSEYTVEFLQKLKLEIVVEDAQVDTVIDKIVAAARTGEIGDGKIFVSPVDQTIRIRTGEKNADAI", "assay": "ITC binding of small effector molecules to cyanobacterial SyPII", "set-up": "species or system Synechococcus elongatus PCC 7942", "experimental": "To gain additional insights into the ligand binding properties of PpPII in comparison to cyanobacterial and chloroplastid PII proteins, isothermal titration calorimetry (ITC) experiments were performed using highly purified Strep-tagged or His-tagged recombinant PpPII, SyPII, CrPII, and PhyscoPII proteins (Supplementary Fig. S1) with different protein/ligand/ concentrations to determine the best fitting conditions of the binding model. The titration experiments were repeated with different protein preparations to confirm the reproducibility of the results. The raw isothermal data were fitted into one-binding site as well as three-sequential binding sites to define the best fitting model. Fitting using a one binding site model states an average Kd value for all available binding sites and the mean of the stoichiometry of bound ligands.\nThe ITC experiments were done using a VP-ITC microcalorimeter (MicroCal, LCC). All details for determination of binding constants for small effector molecules using ITC are fully described in the supplementary information. Heat isotherms of the dilution of the ligand in the cell buffer were collected in a blank run for each experiment in the absence of protein. The binding isotherms were calculated from received data and fitted to one-site and three-sequential binding sites models using the MicroCal ORIGIN software (Northampton) as described. All titrations were performed in duplicates with different purification batches of recombinant PII proteins. The association binding constant (Ka) was generated from the software by de-convolution and curve fitting. For calculation of dissociation constant (Kd), the Ka value was inversed.\nSupplementary Information […]\nDetermination of Binding Constants for Small Effector Molecules using Isothermal […]\nThe binding of the small effector molecules to the recombinant PII proteins was tested using isothermal titration calarmity (ITC); VP-ITC microcalorimeter (MicroCal). All titrations were performed on 20°C using […] injection syringe with injection 6 µl or 10 µl of the tested ligands for 45 or 29 times, respectively into the cell (1.4 ml) with continuous stirring at 155 rpm. All tested ligands were high grade, prepared freshly in the same buffer of the protein and purchased from Sigma-Aldrich. Heat isotherms for the dilution of the ligand in the cell buffer were collected in a blank run in the absence of protein. The received calorimetric data were analyzed using MicroCal Origin software and fitted into one-site and three-sequential binding sites models, as indicated by the manufacture for calculation of binding isotherms9. For data reproducibility, the titrations were performed in duplicates with different purification batches of recombinant PII proteins. The association binding constant (Ka) was generated from the software by de-convolution and curve fitting. For calculation of dissociation constant (Kd), the Ka value was inversed. […]\nFor determination the binding isotherms of cyanobacterial SyPII protein, a strep-tagged recombinant protein (20 µM trimeric concentration) was overexpressed and used as described previously9, 15, in a buffer composed of 10 mM Hepes-NaOH, 50 mM KCl, 50 mM NaCl, and 1"}, "[2]": {"biological_target": "T2, ScNAGK (Synechocystis sp., UniProt P73326)", "T2 sequence (P73326 1-297)": "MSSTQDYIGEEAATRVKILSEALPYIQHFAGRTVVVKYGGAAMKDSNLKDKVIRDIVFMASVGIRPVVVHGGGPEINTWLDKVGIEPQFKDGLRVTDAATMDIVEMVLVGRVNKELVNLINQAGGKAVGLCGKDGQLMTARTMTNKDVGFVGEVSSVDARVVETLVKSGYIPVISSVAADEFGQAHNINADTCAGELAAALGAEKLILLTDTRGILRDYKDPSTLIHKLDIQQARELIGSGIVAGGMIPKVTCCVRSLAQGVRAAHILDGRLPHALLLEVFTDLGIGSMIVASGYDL", "assay": "AGPR-coupled NAGK activity assay without PpPII", "assay_type": "biochemical, Synechocystis sp. PCC 6803", "settings": "absence of PpPII, comparing 0 and 4 mM ADP, at 1 mM or 2 mM ATP", "description": "(§1) All available structural information of PII proteins revelas that ATP and ADP bind to the same binding sites[2],[7]. When ATP and ADP are simultaneously present, they will compete for binding to the PII trimer. Since, the ATP/ADP binding site of the red algal PpPII protein is highly conserved (Fig. 1), competition between the nucleotides will occur. Since the activation of NAGK by PII is dependent on the ATP-ligated state of PII[9] and ADP inhibits PII-NAGK complex formation[9],[31], competition between ATP/ADP for PII binding can be monitored by measuring NAGK activity[31] under different ATP/ADP ratios. For this assay, we used an AGPR-coupled activity assay for NAGK[33], which allows measurement of NAGK activity in presence of ADP. Different concentrations of ADP were added to reaction mixtures containing either 1 mM or 2 mM ATP, in the absence or presence of PpPII (Fig. 8). Addition of ADP led to a monotonical and shallow decrease in the activity of ScNAGK at both fixed ATP concentration. […]\n(§2) The change in NADPH absorbance was recorded at 340 nm as described previously[31],[33], in a reaction buffer composed of 50 mM potassium phosphate (pH 7.0), 50 mM KCl, 20 mM MgCl2, 0.2 mM NADPH and 0.5 mM DTT. […] The reaction was started by the addition of ScNAGK and was recorded for 10 min with a spectrophotometer (SPECORD 210 PLUS, Analytik Jena). Kinetic constants were calculated as descried above."}, "[3]": {"biological_target": "ScNAGK in the presence of PpPII (Porphyra purpurea, UniProt P51254)", "sequence (P51254 whole entry)": "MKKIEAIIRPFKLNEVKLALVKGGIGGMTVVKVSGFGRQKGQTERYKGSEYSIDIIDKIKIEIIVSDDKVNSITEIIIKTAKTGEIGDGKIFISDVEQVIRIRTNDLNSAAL", "assay": "AGPR-coupled NAGK activity assay with PpPII", "assay_type": "biochemical, Synechocystis sp. PCC 6803; Porphyra purpurea", "settings": "4 mM ADP with 1 mM ATP", "description": "as §1, §2"}}, "data": [{"smiles": "Nc1ncnc2c1ncn2[C@@H]1O[C@H](COP(=O)(O)OP(=O)(O)O)[C@@H](O)[C@H]1O", "note": "[ADP]", "values": [{"measurement": "ADP concentration at which the enthalpy reached a maximum (biphasic titration curve)", "setting": "[1]; ADP titrated in the presence of 1 mM 2-OG", "value": "80.0 ± 7.1", "unit": "µM"}, {"measurement": "Kd", "setting": "[1]; Average Kd (one-site binding model), in presence 2-OG (1 mM) and 150 µM ADP", "value": "45.8 ± 44", "unit": "µM"}, {"measurement": "Kd", "setting": "[1]; Kd1 (three-sites binding model), in presence 2-OG (1 mM) and 150 µM ADP", "value": "10.7 ± 1.9", "unit": "µM"}, {"measurement": "Kd", "setting": "[1]; Kd2 (three-sites binding model), in presence 2-OG (1 mM) and 150 µM ADP", "value": "26.4 ± 4.2", "unit": "µM"}, {"measurement": "Kd", "setting": "[1]; Kd3 (three-sites binding model), in presence 2-OG (1 mM) and 150 µM ADP", "value": "101 ± 103", "unit": "µM"}, {"measurement": "N, number of calculated binding sites (one-site binding model)", "setting": "[1]; in presence 2-OG (1 mM) and 150 µM ADP", "value": 4.0}, {"measurement": "reduction of ScNAGK activity", "setting": "[2]", "value": "about 1.8 fold"}, {"measurement": "ScNAGK activity in the presence of PpPII at the highest ADP/ATP ratio", "setting": "[3]", "value": "as low as ScNAGK activity in the absence of PpPII"}]}]}
